This note sets out measurements from patent US20150175599A1, “FAAH Inhibitors” (Ironwood Pharmaceuticals, Inc., priority 2010, published 2015).

Structures are written as SMILES.

The target in one assay is T1, FAAH (Homo sapiens, UniProt O00519).
T1 construct: Reactions were initiated by adding 12.5 μg of brain microsome; tissue ABS, Inc; host or cells: human brain cerebral cortex, membrane/microsome fraction pooled from 3 donors
T1 sequence (O00519 1-579): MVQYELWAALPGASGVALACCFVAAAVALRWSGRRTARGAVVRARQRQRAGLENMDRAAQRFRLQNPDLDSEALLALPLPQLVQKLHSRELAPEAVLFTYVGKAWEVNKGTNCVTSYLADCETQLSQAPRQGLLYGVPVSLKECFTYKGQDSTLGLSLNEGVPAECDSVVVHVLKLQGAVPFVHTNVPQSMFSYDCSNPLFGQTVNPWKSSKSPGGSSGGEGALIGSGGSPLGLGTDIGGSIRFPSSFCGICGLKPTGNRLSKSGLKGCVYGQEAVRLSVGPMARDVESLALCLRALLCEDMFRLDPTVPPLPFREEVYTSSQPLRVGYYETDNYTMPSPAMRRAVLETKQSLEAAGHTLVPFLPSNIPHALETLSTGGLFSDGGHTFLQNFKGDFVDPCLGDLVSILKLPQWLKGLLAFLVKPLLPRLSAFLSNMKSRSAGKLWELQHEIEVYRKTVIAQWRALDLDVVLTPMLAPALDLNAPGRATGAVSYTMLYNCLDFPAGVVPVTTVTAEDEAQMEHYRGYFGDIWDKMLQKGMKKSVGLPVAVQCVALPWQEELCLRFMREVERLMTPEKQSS
The assay is described as follows: FAAH inhibition, human brain membrane homogenate assay. It is filed as biochemical. As to conditions: human brain homogenate; average activity; read-out: Human brain Extract FAAH IC50.

The target of the next assay is T2, human FAAH-1 (Homo sapiens, UniProt O00519).
T2 sequence (O00519 1-579): T1 sequence (O00519 1-579)
The assay is described as follows: Whole cell anandamide hydrolysis assay (HeLa clone 5c5 transfected with human FAAH-1). Type of assay: cell-based. The note with it: HeLa clone 5c5 expressing human FAAH-1; read-out: human FAAH whole cell IC50. On the procedure: FAAH activity was assayed in whole cells using methods disclosed previously (Maccarone et al., 1998 J Biol. Chem. 273:32332 and Bisogno et al., 1997 J Biol. Chem. 272:3315). In addition to the cell lines described in Maccarone et al. and Bisogno et al., MCF7 (ATCC designation HTB-22) and T84 (ATCC designation CCL-248) cell lines were also used in these assays.
cDNA expression clone for human FAAH-1 (in pcDNA3 vector) (Genbank Accession U82535; obtained from Benjamin Cravatt, Scripps Research Institute, La Jolla, Calif.) was linearized by digestion with BglII (New England Biolabs) and transfected by calcium phosphate into human HeLa cells (ATCC catalog #CCL-2). […] Following transfection, a stable HeLa-derived clone, designated 5c5, was isolated by single colony purification and expanded and maintained in modified Eagles medium (MEM; VWR catalog #45000-300) containing 10% fetal bovine serum (FBS), 2 mM L-glutamine, and 0.5 mg/mL G-418 (Sigma catalog #G5013).
Clone 5c5 (50,000 cells in 150 μL) was seeded into 96-well plates and incubated overnight (5% CO2, 37° C.). Media was carefully replaced with 180 μL DMEM/F12 medium (VWR catalog #45000-350) containing 15 mM HEPES, pH 7.4 and 0.1% fatty acid free BSA (Sigma catalog #A0281). Then, 2 μL of 100× desired final concentrations of certain exemplary compounds described herein were made up in DMSO, added to wells containing cells, and plates were incubated at 37° C. for 10 min. Next, 20 μL of 5 μM anandamide (Cayman catalog #90050) spiked with 8 μCi of anandamide-(ethanolamine-1-[^3H]) (American Radiolabeled Chemicals, Inc., catalog #ART 626) was added to the cells and the plates were incubated for an additional 15 min at 37° C. The reactions were terminated by chilling the plates on ice and adding 20 μL of 0.5M of potassium phosphate buffer (adjusted to pH 2.1 with phosphoric acid).
The acidified reactions were transferred to 96-well filter plates (0.25 mL capacity/well, 1.2 micron glass fiber pre-filter packed above 0.65 micron pore-size PVDF membrane, Millipore catalog MSFCN6B50) containing 25 μL charcoal (neutral activated carbon, Fisher Scientific catalog C170-500) per well. Prior to the assay, charcoal was measured and loaded onto the plate using an aluminum 96-well column loading device (Millipore catalog MACL09625). The filter plate was assembled over an empty 96-well plate (Costar) using a centrifuge alignment frame (Millipore catalog MACF09604) to allow for collection of the filtrate in the receiver plate. The charcoal glass-fiber filter plates were pre-washed with methanol by centrifugation 650×g for 10 min). Next, 80 μL of water was added to the wells of the pre-washed 96 well charcoal filter plate. Then, 90 μL of the acidified reaction mixture was added to the water in the wells of the charcoal plate. The samples were centrifuged as above. The substrate remained bound to the charcoal, whereas the [^3H]-ethanolamine product formed flowed through and was transferred to the microplates containing scintillation cocktail and quantified in a micro-plate scintillation counter (Perkin-Elmer Microbeta). Control reactions with either no cells or cells treated with DMSO alone were performed in triplicate and used to define background (no cells) and 100% activity (DMSO alone).
Following subtraction of background radioactivity, data were expressed as percent inhibition relative to 100% activity and fit with a nonlinear regression curve using GraphPad Prism Software (GraphPad Software Inc). IC50 values were calculated from the resulting dose-response curves constrained at top and bottom to 100% and 0%, respectively.

For orientation: IC50 means the concentration needed to halve the response being measured. On to `Cc1c(C(=O)C(=O)Nc2cccc(Cl)c2)c2cc(O)ccc2n1Cc1ccc(Cl)cc1` [Compound 71, 2-(1-(4-chlorobenzyl)-5-hydroxy-2-methyl-1H-indol-3-yl)-N-(3-chlorophenyl)-2-oxoacetamide], for which the IC50 at FAAH and on human FAAH-1 was below 100 nM throughout.
`COc1cc(NC(=O)C(=O)c2c(C)n(Cc3ccc(Cl)cn3)c3ccccc23)ccn1` [Compound 68, 2-(1-((5-chloropyridin-2-yl)methyl)-2-methyl-1H-indol-3-yl)-N-(2-methoxypyridin-4-yl)-2-oxoacetamide]: the IC50 on FAAH and at human FAAH-1 was below 100 nM each time.
In the case of `COc1ccc2c(c1)c(C(=O)C(=O)Nc1ccnc(OC)c1F)c(C)n2Cc1ccc(Cl)cc1` [Compound 53, 2-(1-(4-chlorobenzyl)-5-methoxy-2-methyl-1H-indol-3-yl)-N-(3-fluoro-2-methoxypyridin-4-yl)-2-oxoacetamide], the figures for the IC50 on FAAH and on human FAAH-1 were 100 to 1000 nM and below 100 nM, respectively.
The corresponding values for `COc1cc(NC(=O)C(=O)c2c(C)n(Cc3ncc(F)cc3F)c3cc(F)c(OC)cc23)ccn1` [Compound 101, 2-(1-((3,5-difluoropyridin-2-yl)methyl)-6-fluoro-5-methoxy-2-methyl-1H-indol-3-yl)-N-(2-methoxypyridin-4-yl)-2-oxoacetamide] are below 100 nM and below 100 nM.
The like results for `COc1ccc2c(c1)c(C(=O)C(=O)Nc1cc(OC)ncc1F)c(C)n2Cc1ccc(Cl)cc1` [Compound 54, 2-(1-(4-chlorobenzyl)-5-methoxy-2-methyl-1H-indol-3-yl)-N-(5-fluoro-2-methoxypyridin-4-yl)-2-oxoacetamide] were, in that order, below 100 nM and below 100 nM.
The like results for `COc1cc(NC(=O)C(=O)c2c(C)n(Cc3ccc(F)cc3F)c3cc(F)c(OC)cc23)ccn1` [Compound 14, 2-(1-(2,4-difluorobenzyl)-6-fluoro-5-methoxy-2-methyl-1H-indol-3-yl)-N-(2-methoxypyridin-4-yl)-2-oxoacetamide] were, in that order, below 100 nM and below 100 nM.
Regarding `COc1cc(NC(=O)C(=O)c2c(C)n(Cc3ccc(Cl)cc3)c3ccc(N(C)C)cc23)ccn1` [Compound 17, 2-(1-(4-chlorobenzyl)-5-(dimethylamino)-2-methyl-1H-indol-3-yl)-N-(2-methoxypyridin-4-yl)-2-oxoacetamide], the IC50 on FAAH and at human FAAH-1 was below 100 nM in each case.
For `COc1cc(NC(=O)C(=O)c2c(C)n(Cc3ccc(Cl)cc3)c3ccc(OC)c(F)c23)ccn1` [Compound 59, 2-(1-(4-chlorobenzyl)-4-fluoro-5-methoxy-2-methyl-1H-indol-3-yl)-N-(2-methoxypyridin-4-yl)-2-oxoacetamide], the IC50 at FAAH and at human FAAH-1 was below 100 nM each time.
As for `COc1ccc2c(c1)c(C(=O)C(=O)Nc1ccnc(O)c1)c(C)n2Cc1ccc(Cl)cc1` [Compound 50, 2-(1-(4-chlorobenzyl)-5-methoxy-2-methyl-1H-indol-3-yl)-N-(2-hydroxypyridin-4-yl)-2-oxoacetamide], the IC50 at FAAH and at human FAAH-1 was 1000 to 10000 nM throughout.
Consider `COc1cc(NC(=O)C(=O)c2c(C)n(Cc3ccc(Cl)cc3)c3cc(F)c(OC)cc23)ccn1` [Compound 72, 2-(1-(4-chlorobenzyl)-6-fluoro-5-methoxy-2-methyl-1H-indol-3-yl)-N-(2-methoxypyridin-4-yl)-2-oxoacetamide], for which the IC50 at FAAH and on human FAAH-1 was below 100 nM throughout.
Turning to `COc1cc(NC(=O)C(=O)c2c(C)n(Cc3ccc(Cl)cc3)c3cc(Cl)c(OC)cc23)ccn1` [Compound 55, 2-(6-chloro-1-(4-chlorobenzyl)-5-methoxy-2-methyl-1H-indol-3-yl)-N-(2-methoxypyridin-4-yl)-2-oxoacetamide], the IC50 on FAAH and at human FAAH-1 was below 100 nM each time.
Regarding `COc1cc(NC(=O)C(=O)c2c(C)n(Cc3ccc(Cl)cc3)c3ccc(N)c(Cl)c23)ccn1` [Compound 73, 2-(5-amino-4-chloro-1-(4-chlorobenzyl)-2-methyl-1H-indol-3-yl)-N-(2-methoxypyridin-4-yl)-2-oxoacetamide], the IC50 on FAAH was 100 to 1000 nM; on human FAAH-1, below 100 nM.
The corresponding values for `COc1ccc2c(c1)c(C(=O)C(=O)Nc1ccnc(OC)c1Cl)c(C)n2Cc1ccc(Cl)cc1` [Compound 52, N-(3-chloro-2-methoxypyridin-4-yl)-2-(1-(4-chlorobenzyl)-5-methoxy-2-methyl-1H-indol-3-yl)-2-oxoacetamide] are above 10000 nM and 100 to 1000 nM.
For the compound `COc1cc(NC(=O)C(=O)c2c(C)n(Cc3ncc(Cl)cc3Cl)c3ccc(C)cc23)ccn1` [Compound 30, 2-(1-((3,5-dichloropyridin-2-yl)methyl)-2,5-dimethyl-1H-indol-3-yl)-N-(2-methoxypyridin-4-yl)-2-oxoacetamide], the IC50 at FAAH and at human FAAH-1 was below 100 nM in each case.
Consider `COc1cc(NC(=O)C(=O)c2c(C)n(Cc3ccc(Cl)cc3)c3ccc(CN(C)C)cc23)ccn1` [Compound 26, 2-(1-(4-chlorobenzyl)-5-((dimethylamino)methyl)-2-methyl-1H-indol-3-yl)-N-(2-methoxypyridin-4-yl)-2-oxoacetamide], for which the IC50 at FAAH is 100 to 1000 nM; on human FAAH-1 it was below 100 nM.
The corresponding values for `COc1cc(NC(=O)C(=O)c2c(C)n(Cc3ccc(Cl)cn3)c3cc(OC)c(Cl)cc23)ccn1` [Compound 67, 2-(5-chloro-1-((5-chloropyridin-2-yl)methyl)-6-methoxy-2-methyl-1H-indol-3-yl)-N-(2-methoxypyridin-4-yl)-2-oxoacetamide] are below 100 nM and below 100 nM.
The corresponding values for `COc1cc(NC(=O)C(=O)c2c(C)n(Cc3ncc(Cl)cc3Cl)c3cc(F)c(OC)cc23)ccn1` [Compound 13, 2-(1-((3,5-dichloropyridin-2-yl)methyl)-6-fluoro-5-methoxy-2-methyl-1H-indol-3-yl)-N-(2-methoxypyridin-4-yl)-2-oxoacetamide] are below 100 nM and below 100 nM.
The like results for `COc1cc(NC(=O)C(=O)c2c(C)n(Cc3ccc(Cl)cn3)c3cc(Cl)c(OC)cc23)ccn1` [Compound 60, 2-(6-chloro-1-((5-chloropyridin-2-yl)methyl)-5-methoxy-2-methyl-1H-indol-3-yl)-N-(2-methoxypyridin-4-yl)-2-oxoacetamide] were, in that order, below 100 nM and below 100 nM.
Consider `COc1cc(NC(=O)C(=O)c2c(C)n(Cc3ccc(Cl)cc3)c3ccc(OC)c(Cl)c23)ccn1` [Compound 58, 2-(4-chloro-1-(4-chlorobenzyl)-5-methoxy-2-methyl-1H-indol-3-yl)-N-(2-methoxypyridin-4-yl)-2-oxoacetamide], for which the IC50 on FAAH and on human FAAH-1 was below 100 nM in each case.
